Broadly, the IC50 is the point on the concentration scale where inhibition reaches its midpoint.

Consider two molecules from patent US8703917B2, “Epidermal growth factor receptor variants and pharmaceutical compositions thereof” (Shanghai Cancer Institute, priority 2010, dated 2014).

The subject of one experiment is U87MG EGFRvA. Nature of the experiment: Cell growth suppression assay (CCK-8) using small molecular inhibitors against EGFR. Format: cell-based, human. How it is done: (§1) Methods: cells in the log-phase growth were plated in 96-well plates with 3000 cells/well. […] The medium were replaced with fresh medium containing 10% CCK-8 reagents and incubated for another 2 h. The OD450 value was then measured.

The subject of another experiment is U87MG EGFRwt. The description is as above. Format: cell-based, human. Conditions: U87MG EGFRwt cells, 72 h with inhibitor, CCK-8 OD450. How it is done: as §1

In the case of `COc1cc2ncnc(Nc3cccc(Cl)c3)c2cc1OC` [AG1478], the half-maximal inhibitory concentration (IC50) in the experiment with U87MG EGFRvA (U87MG EGFRvA cells, 72 h with inhibitor, CCK-8 OD450) was 4060 nM; with U87MG EGFRwt, 890 nM. Besides, the “IC50 ratio (EGFRvA/EGFRwt)” value in the experiment with U87MG EGFRvA (U87MG EGFRvA versus U87MG EGFRwt) amounted to 4.56.
`C#Cc1cccc(Nc2ncnc3cc(OCCOC)c(OCCOC)cc23)c1` [Erlotinib]: in the experiment on U87MG EGFRvA (FIG. 7), the “sensitivity of cell line stably expressing EGFRvA compared with cell line stably expressing EGFR” value is “lower sensitivity”.
